From PubChem BioAssay (NCI)
Where “and” joins values, the source holds several entries; their conditions need not be identical. Equal values may be shown once.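 Cells were grown in 96-well plates and exposed to each compound for 48 hours at five concentrations; endpoints were interpolated linearly between bracketing concentrations, or set to the highest concentration if not reached. GI50 is the concentration that inhibits growth by half. TGI marks complete inhibition of growth.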

What was measured:
Test in all cases: NCI tumour cell line growth inhibition, 48 h
[1] = system: SK-MEL-28 melanoma
[2] = system: MDA-N
[3] = system: MDA-MB-231 breast
[4] = system: MOLT-4 leukemia
[5] = system: OVCAR-3 ovarian
[6] = system: OVCAR-8 ovarian
[7] = system: 786-0 renal
[8] = system: COLO 205 colon
[9] = system: IGROV1 ovarian
[10] = system: MALME-3M melanoma

SMILES	TGI [1] [µM]	TGI [2] [µM]	TGI [3] [µM]	TGI [4] [µM]	TGI [5] [µM]	TGI [6] [µM]	TGI [7] [µM]	TGI [8] [µM]	TGI [9] [µM]	TGI [10] [µM]	GI50 [4] [µM]	GI50 [9]
CC(=O)N=C1N(/C=C2\C(=O)Oc3ccccc3C2=O)C(=O)/C(=C/c2ccc(NC(C)=O)cc2)N1C	> 100	> 100	> 100	> 100	> 100	> 100	> 100	> 100	> 100	> 100		
O=S(=O)(/N=C(\NO)Nc1ccc(Cl)cc1)c1cccc2nsnc12	46.6	79	> 100	> 100	70	> 100	80.7	> 100	> 100	46.3		
CC(=O)N=C1N(/C=C2\C(=O)Oc3ccccc3C2=O)C(=O)/C(=C/c2ccc(Cl)cc2Cl)N1C	> 100		> 100	> 100	> 100	> 100	> 100	> 100	> 100	> 100		
CC(C)C(N)=O	> 5000			> 5000		> 5000	> 5000	> 5000	> 5000	> 5000		
COC(=O)[C@H](Cc1c[nH]c2ccccc12)NC(=O)c1ccc(CNC(=O)/C=C/c2cccc(Oc3ccccc3)c2)cc1	> 100	23.9	> 100	> 100	> 100	> 100	> 100	> 100	> 100	> 100		
C[N+]1(CCCl)CC[N+](C)(CCCl)CC1 (stereo not drawn)	> 100	> 100	> 100	> 100	> 100	> 100	> 100	> 100	> 100	> 100		
Cc1csc(/N=C\c2c(O)c3ccccc3oc2=O)n1		> 100	34.7	> 100	> 100	> 100	> 100	> 100	> 100	70.3		
Cc1c2c(OCCN3CCCCC3)nn(C)c(=O)c2c(C)n1-c1ccccc1	84.7	> 100	> 100	> 100	> 100	> 100	36.7	35.5	> 100	35.3		
CN(C)CCCn1nc(N)c2nc3cc(Cl)ccc3nc21	35.7	> 100	> 100	> 100	> 100	> 100	> 100	> 100	94.8	> 100		
CCNC(=O)c1c(O)c2ccccc2[nH]c1=O	> 100	> 100	> 100	> 100	> 100	> 100	> 100	> 100	> 100	> 100		
CCN(CC)CCNC(=O)c1cn2c(ccc3sc4ccccc4c(=O)c32)n1	25.6	28.4	27.5	11.9	26.7	31.8	19.5	21.1	21.3	26.9		
C=C1C(=O)O[C@@H]2C[C@]3(C)CC[C@]4(C)[C@H](CC[C@@H]5[C@@]6(C)CCC(=O)C(C)(C)[C@@H]6CC[C@]54C)[C@H]3[C@H]12	38.4	30.9	47.1	5.76	35.5	38.7	30.2	21.6	39.2	29.7		
CCOP(=O)(OCC)C(C#N)Cc1ccco1 (stereo not drawn)	> 10	> 10	> 10	> 10	> 10	> 10	> 10	> 10	> 10	> 10		
COc1ccc(C2C3COc4ccccc4C3=NN2c2ccccc2)cc1 (stereo not drawn)		> 100	> 100	> 100	> 100	> 100	> 100	> 100	> 100	> 100		
C=C1C(=O)O[C@@H]2C=C(C)C3=CC(=O)[C@](C)(C[C@H](OC(=O)/C(C)=C\C)[C@@H]12)O3	3.03	1.49	2.24	1.5	1.71	2.18	1.54	2	3.04	7.5	0.353	
CC1C2(C)OC(=N)C(C#N)(C(c3cccc([N+](=O)[O-])c3)O2)C1(C#N)C#N (stereo not drawn)	47.5	32.4	32	> 100		> 100	45.2	27.5	> 100	73		
O=C(Cc1ccccc1)Nn1c(-c2ccccc2)nc2ccccc2c1=O	> 100	> 100	> 100	> 100	> 100	> 100	> 100	> 100	> 100	> 100		
O=C1CCCCCCCCCCC1CN1CCCCC1 (stereo not drawn)	> 100			> 100	> 100	> 100	> 100	> 100	> 100	> 100		
CCOC(=O)c1sc2[n+](c1C)C(=O)/C(=C/c1ccc([N+](=O)[O-])cc1)S2	> 100	66.9	> 100	53.5	24.1	69.9	56.8	68.7				
N#Cc1c(-c2ccccc2)[nH]c(=O)n(C2OC(CO)C(O)C(O)C2O)c1=O (stereo not drawn)	> 100		> 100	> 100	> 100	> 100	> 100	> 100	> 100			> 100 µM and 21.3 µM
NC1=CN2c3ccccc3N(CC(=O)O)C2C=C1 (stereo not drawn)	> 100		> 100	> 100	> 100	> 100	> 100	> 100	> 100	> 100		
